Legend:
[1] = tested on: Streptococcus pyogenes; experiment: Potentiation of tetracycline-induced antibacterial activity against Streptococcus pyogenes ATCC 14289 assessed as minimum modulatory concentration up to 32 uM measured after 16 hrs in presence of MIC/4 tetracycline; type: functional; settings: ATCC 14289, 16 h, read-out: MEC
[2] = tested on: Enterococcus faecium; experiment: Potentiation of methicillin-induced antibacterial activity against Enterococcus faecium ATCC 700221 assessed as minimum modulatory concentration up to 32 uM measured after 16 hrs in presence of MIC/4 methicillin; type: functional; settings: ATCC 700221, 16 h, read-out: MEC
[3] = tested on: Escherichia coli; experiment: Toxicity in Escherichia coli ATCC 43894 up to 32 uM measured after 16 hrs; type: organism-based
[4] = tested on: Klebsiella pneumoniae; experiment: Toxicity in Klebsiella pneumoniae ATCC 13883 up to 32 uM measured after 16 hrs; type: organism-based
[5] = tested on: Escherichia coli; experiment: Potentiation of geneticin-induced antibacterial activity against Escherichia coli ATCC 43894 assessed as minimum modulatory concentration up to 32 uM measured after 16 hrs in presence of MIC/4 geneticin; type: functional; settings: ATCC 43894, 16 h, read-out: MEC
[6] = tested on: Pseudomonas aeruginosa; experiment: Potentiation of ciprofloxacin-induced antibacterial activity against Pseudomonas aeruginosa ATCC BAA-2108 assessed as minimum modulatory concentration up to 32 uM measured after 16 hrs in presence of MIC/4 ciprofloxacin; type: functional; settings: ATCC BAA-2108, 16 h, read-out: MEC
[7] = tested on: Escherichia coli; experiment: Potentiation of erythromycin-induced antibacterial activity against Escherichia coli ATCC 43894 assessed as minimum modulatory concentration up to 32 uM measured after 16 hrs in presence of MIC/4 erythromycin; type: functional; settings: ATCC 43894, 16 h, read-out: MEC
[8] = tested on: Enterococcus faecium; experiment: Potentiation of tetracycline-induced antibacterial activity against Enterococcus faecium ATCC 700221 assessed as minimum modulatory concentration up to 32 uM measured after 16 hrs in presence of MIC/4 tetracycline; type: functional; settings: ATCC 700221, 16 h, read-out: MEC
[9] = tested on: Klebsiella pneumoniae; experiment: Potentiation of methicillin-induced antibacterial activity against Klebsiella pneumoniae ATCC 13883 assessed as minimum modulatory concentration up to 32 uM measured after 16 hrs in presence of MIC/4 methicillin; type: functional; settings: ATCC 13883, 16 h, read-out: MEC
[10] = tested on: Staphylococcus aureus; experiment: Potentiation of erythromycin-induced antibacterial activity against Staphylococcus aureus ATCC 33592 assessed as minimum modulatory concentration up to 32 uM measured after 16 hrs in presence of MIC/4 erythromycin; type: functional; settings: ATCC 33592, 16 h, read-out: MEC
[11] = tested on: Staphylococcus aureus; experiment: Potentiation of methicillin-induced antibacterial activity against Staphylococcus aureus ATCC 33592 assessed as minimum modulatory concentration up to 32 uM measured after 16 hrs in presence of MIC/4 methicillin; type: functional; settings: ATCC 33592, 16 h, read-out: MEC
[12] = tested on: Enterococcus faecium; experiment: Potentiation of ciprofloxacin-induced antibacterial activity against Enterococcus faecium ATCC 700221 assessed as minimum modulatory concentration up to 32 uM measured after 16 hrs in presence of MIC/4 ciprofloxacin; type: functional; settings: ATCC 700221, 16 h, read-out: MEC
[13] = tested on: Enterococcus faecium; experiment: Potentiation of erythromycin-induced antibacterial activity against Enterococcus faecium ATCC 700221 assessed as minimum modulatory concentration up to 32 uM measured after 16 hrs in presence of MIC/4 erythromycin; type: functional; settings: ATCC 700221, 16 h, read-out: MEC
[14] = tested on: Streptococcus pyogenes; experiment: Potentiation of methicillin-induced antibacterial activity against Streptococcus pyogenes ATCC 14289 assessed as minimum modulatory concentration up to 32 uM measured after 16 hrs in presence of MIC/4 methicillin; type: functional; settings: ATCC 14289, 16 h, read-out: MEC
[15] = tested on: Staphylococcus aureus; experiment: Potentiation of tetracycline-induced antibacterial activity against Staphylococcus aureus ATCC 33592 assessed as minimum modulatory concentration up to 32 uM measured after 16 hrs in presence of MIC/4 tetracycline; type: functional; settings: ATCC 33592, 16 h, read-out: MEC
[16] = tested on: Staphylococcus aureus; experiment: Toxicity in Staphylococcus aureus ATCC 33592 up to 32 uM measured after 16 hrs; type: organism-based
[17] = tested on: Streptococcus pyogenes; experiment: Potentiation of geneticin-induced antibacterial activity against Streptococcus pyogenes ATCC 14289 assessed as minimum modulatory concentration up to 32 uM measured after 16 hrs in presence of MIC/4 geneticin; type: functional; settings: ATCC 14289, 16 h, read-out: MEC
[18] = tested on: Escherichia coli; experiment: Potentiation of ciprofloxacin-induced antibacterial activity against Escherichia coli ATCC 43894 assessed as minimum modulatory concentration up to 32 uM measured after 16 hrs in presence of MIC/4 ciprofloxacin; type: functional; settings: ATCC 43894, 16 h, read-out: MEC
[19] = tested on: Pseudomonas aeruginosa; experiment: Potentiation of tetracycline-induced antibacterial activity against Pseudomonas aeruginosa ATCC BAA-2108 assessed as minimum modulatory concentration up to 32 uM measured after 16 hrs in presence of MIC/4 tetracycline; type: functional; settings: ATCC BAA-2108, 16 h, read-out: MEC
[20] = tested on: Pseudomonas aeruginosa; experiment: Potentiation of erythromycin-induced antibacterial activity against Pseudomonas aeruginosa ATCC BAA-2108 assessed as minimum modulatory concentration up to 32 uM measured after 16 hrs in presence of MIC/4 erythromycin; type: functional; settings: ATCC BAA-2108, 16 h, read-out: MEC
[21] = tested on: Macrophage cell line; experiment: Induction of prostaglandin production in human PBMC-differentiated macrophages after 24 hrs by ELISA; type: cell-based
[22] = tested on: Macrophage cell line; experiment: Induction of IL-1beta production in human PBMC-differentiated macrophages after 24 hrs by ELISA; type: cell-based
[23] = tested on: Enterococcus faecium; experiment: Toxicity in Enterococcus faecium ATCC 700221 up to 32 uM measured after 16 hrs; type: organism-based; settings: in vitro
[24] = tested on: Staphylococcus aureus; experiment: Potentiation of geneticin-induced antibacterial activity against Staphylococcus aureus ATCC 33592 assessed as minimum modulatory concentration up to 32 uM measured after 16 hrs in presence of MIC/4 geneticin; type: functional; settings: ATCC 33592, 16 h, read-out: MEC
[25] = tested on: Klebsiella pneumoniae; experiment: Potentiation of geneticin-induced antibacterial activity against Klebsiella pneumoniae ATCC 13883 assessed as minimum modulatory concentration up to 32 uM measured after 16 hrs in presence of MIC/4 geneticin; type: functional; settings: ATCC 13883, 16 h, read-out: MEC
[26] = tested on: Klebsiella pneumoniae; experiment: Potentiation of erythromycin-induced antibacterial activity against Klebsiella pneumoniae ATCC 13883 assessed as minimum modulatory concentration up to 32 uM measured after 16 hrs in presence of MIC/4 erythromycin; type: functional; settings: ATCC 13883, 16 h, read-out: MEC
[27] = tested on: Enterococcus faecium; experiment: Potentiation of geneticin-induced antibacterial activity against Enterococcus faecium ATCC 700221 assessed as minimum modulatory concentration up to 32 uM measured after 16 hrs in presence of MIC/4 geneticin; type: functional; settings: ATCC 700221, 16 h, read-out: MEC
[28] = tested on: Streptococcus pyogenes; experiment: Potentiation of erythromycin-induced antibacterial activity against Streptococcus pyogenes ATCC 14289 assessed as minimum modulatory concentration up to 32 uM measured after 16 hrs in presence of MIC/4 erythromycin; type: functional; settings: ATCC 14289, 16 h, read-out: MEC
[29] = tested on: Macrophage cell line; experiment: Cytotoxicity against human PBMC-differentiated macrophages treated for 24 hrs followed by compound washout and measured after 48 hrs by MTT assay; type: cell-based
[30] = tested on: Pseudomonas aeruginosa; experiment: Toxicity in Pseudomonas aeruginosa ATCC BAA-2108 up to 32 uM measured after 16 hrs; type: organism-based; settings: in vitro
[31] = tested on: Streptococcus pyogenes; experiment: Potentiation of ciprofloxacin-induced antibacterial activity against Streptococcus pyogenes ATCC 14289 assessed as minimum modulatory concentration up to 32 uM measured after 16 hrs in presence of MIC/4 ciprofloxacin; type: functional; settings: ATCC 14289, 16 h, read-out: MEC
[32] = tested on: Staphylococcus aureus; experiment: Potentiation of ciprofloxacin-induced antibacterial activity against Staphylococcus aureus ATCC 33592 assessed as minimum modulatory concentration up to 32 uM measured after 16 hrs in presence of MIC/4 ciprofloxacin; type: functional; settings: ATCC 33592, 16 h, read-out: MEC
[33] = tested on: Macrophage cell line; experiment: Induction of TNFalpha production in human PBMC-differentiated macrophages after 24 hrs by ELISA; type: cell-based

O=C(O)c1ccnc(-c2ccccc2)c1O
16 µM: minimal effective concentration [32]
1 µM: minimal effective concentration [1] | minimal effective concentration [2]
> 32 µM: minimal effective concentration [5] | minimal effective concentration [7] | minimal effective concentration [9] | minimal effective concentration [12] | minimal effective concentration [18] | minimal effective concentration [19] | minimal effective concentration [25] | minimal effective concentration [26] | minimal effective concentration [31]
0.5 µM: minimal effective concentration [14] | minimal effective concentration [24]
4 µM: minimal effective concentration [6] | minimal effective concentration [13] | minimal effective concentration [20] | minimal effective concentration [27]
> 100 µM: IC50 [29]
Non-Toxic: Activity [3] | Activity [4] | Activity [16] | Activity [21] | Activity [22] | Activity [23] | Activity [30] | Activity [33]
2 µM: minimal effective concentration [8] | minimal effective concentration [15] | minimal effective concentration [17] | minimal effective concentration [28]
0.25 µM: minimal effective concentration [10] | minimal effective concentration [11]

O=C(O)c1cc(O)c(-c2ccccc2)nc1-c1ccccc1
> 32 µM: minimal effective concentration [5] | minimal effective concentration [7] | minimal effective concentration [9] | minimal effective concentration [12] | minimal effective concentration [18] | minimal effective concentration [19] | minimal effective concentration [25] | minimal effective concentration [26] | minimal effective concentration [31]
16 µM: minimal effective concentration [32]
4 µM: minimal effective concentration [1] | minimal effective concentration [6] | minimal effective concentration [11] | minimal effective concentration [27]
Non-Toxic: Activity [3] | Activity [4] | Activity [16] | Activity [21] | Activity [22] | Activity [23] | Activity [30] | Activity [33]
1 µM: minimal effective concentration [2] | minimal effective concentration [14]
8 µM: minimal effective concentration [10] | minimal effective concentration [15] | minimal effective concentration [20] | minimal effective concentration [24] | minimal effective concentration [28]
2 µM: minimal effective concentration [8] | minimal effective concentration [13] | minimal effective concentration [17]
92.1 µM: IC50 [29]

O=C(O)c1cc(-c2ccc(F)cc2F)ncc1O
Non-Toxic: Activity [3] | Activity [4] | Activity [16] | Activity [21] | Activity [22] | Activity [23] | Activity [30] | Activity [33]
4 µM: minimal effective concentration [6] | minimal effective concentration [8] | minimal effective concentration [10] | minimal effective concentration [13] | minimal effective concentration [20] | minimal effective concentration [27] | minimal effective concentration [28]
> 32 µM: minimal effective concentration [5] | minimal effective concentration [7] | minimal effective concentration [9] | minimal effective concentration [12] | minimal effective concentration [18] | minimal effective concentration [19] | minimal effective concentration [25] | minimal effective concentration [26] | minimal effective concentration [31]
2 µM: minimal effective concentration [14] | minimal effective concentration [15] | minimal effective concentration [24]
97.3 µM: IC50 [29]
16 µM: minimal effective concentration [32]
0.5 µM: minimal effective concentration [11]
8 µM: minimal effective concentration [1] | minimal effective concentration [17]
0.25 µM: minimal effective concentration [2]

O=C(O)c1cc(O)cnc1-c1ccccc1
2 µM: minimal effective concentration [1] | minimal effective concentration [2] | minimal effective concentration [13] | minimal effective concentration [17]
16 µM: minimal effective concentration [24]
1 µM: minimal effective concentration [14] | minimal effective concentration [15]
87.9 µM: IC50 [29]
> 32 µM: minimal effective concentration [5] | minimal effective concentration [7] | minimal effective concentration [9] | minimal effective concentration [12] | minimal effective concentration [18] | minimal effective concentration [19] | minimal effective concentration [25] | minimal effective concentration [26] | minimal effective concentration [31] | minimal effective concentration [32]
8 µM: minimal effective concentration [6] | minimal effective concentration [11] | minimal effective concentration [20] | minimal effective concentration [27]
Non-Toxic: Activity [3] | Activity [4] | Activity [16] | Activity [21] | Activity [22] | Activity [23] | Activity [30] | Activity [33]
4 µM: minimal effective concentration [8] | minimal effective concentration [10] | minimal effective concentration [28]

O=C(O)c1cnc2c(F)cc(F)cc2c1O
16 µM: minimal effective concentration [32]
0.25 µM: minimal effective concentration [2]
1 µM: minimal effective concentration [10] | minimal effective concentration [14]
2 µM: minimal effective concentration [15]
0.5 µM: minimal effective concentration [11]
96.5 µM: IC50 [29]
> 32 µM: minimal effective concentration [5] | minimal effective concentration [7] | minimal effective concentration [9] | minimal effective concentration [12] | minimal effective concentration [18] | minimal effective concentration [19] | minimal effective concentration [25] | minimal effective concentration [26] | minimal effective concentration [31]
Non-Toxic: Activity [3] | Activity [4] | Activity [16] | Activity [21] | Activity [22] | Activity [23] | Activity [30] | Activity [33]
8 µM: minimal effective concentration [28]
4 µM: minimal effective concentration [1] | minimal effective concentration [6] | minimal effective concentration [8] | minimal effective concentration [13] | minimal effective concentration [17] | minimal effective concentration [20] | minimal effective concentration [24] | minimal effective concentration [27]

From ChEMBL document CHEMBL4257522, “Synthesis and preliminary anti-inflammatory and anti-bacterial evaluation of some diflunisal aza-analogs” (Medchemcomm, 2018)
